# Patent US20120258944A1, “ANTIOXIDANTS FOR USE IN THERAPY” (priority 2009, published 2012)
# Experiments:
# [1] = test system: human Neutrophils and human PBMCs; experiment: Intracellular ROS, luminol luminescence with SOD and catalase, PMA or fMLF stimulated cells; assay type: cell-based; details: PMA or fMLF 30 ng/ml; compounds 120, 60, 30 microM; FIG. 5-8
# Method: (§1) Validation was performed by stimulating cells with PMA and fMLF. When treated with the antioxidants, altered level of ROS production from the cells was measured using luminometry. Both intracellular and extracellular effect on ROS on the cells was analyzed using isoluminol (extracellular) and luminol (intracellular when co-administered with SOD and catalase) (Dahlgren et al. “Respiratory burst in human neutrophils”, Journal of Immunological Methods 232 1999; 3-14).
# The luminol reagent buffer is made of HBSS buffer (with Ca^2+), luminol and SOD/Catalase.
# (§2) 1) Add 25 microL of antioxidants to assay plate to get proper concentrations in a total reaction volume of 100 micro-L. 2) Add 25 microL of PMA (120 ng/ml) and fMLF (120 ng/ml) to assay plate to get concentration of 30 ng/ml in a total reaction volume of 100 microL. 3) Add 50 microL of cell suspension (2 million cells/ml) to each well. Immediately after addition of cell suspension initiate luminescence measurement; the reaction starts at once when the cells are added to the assay plate. Measurement points are taken at 1-minute intervals for 25 minutes. Data is presented as AUC (Area Under Curve) by a summary of all collected measurements for each well.
# FIG. 5: Intracellular ROS analyzed by Luminol (intracellular ROS) induced luminescence in human Neutrophils. ROS induced with PMA (30 ng/ml) with 200, 100 or 0 microM NAC. Concentrations of compounds 120, 60, 30 and 0 microM final concentrations.
# FIG. 6: Intracellular ROS analyzed by Luminol (intracellular ROS) induced luminescence in human Neutrophils. ROS induced with fMLF (30 ng/ml) with 200, 100 or 0 microM NAC. Concentrations of compounds 120, 60, 30 and 0 microM final concentrations.
# FIG. 7: Intracellular ROS analyzed by Luminol (intracellular ROS) induced luminescence in human PBMCs. ROS induced with PMA (30 ng/ml) with 200, 100 or 0 microM NAC. Concentrations of compounds 120, 60, 30 and 0 microM final concentrations.
# FIG. 8: Intracellular ROS analyzed by Luminol (intracellular ROS) induced luminescence in human PBMCs. […]
# [2] = test system: human neutrophils and PBMCs, rat neutrophils and PBMCs, human PLB-985 cell line; experiment: Extracellular ROS, isoluminol luminescence, PMA or fMLF stimulated cells; assay type: cell-based; details: PMA or fMLF 30 ng/ml; compounds 120 to 0 microM; FIG. 1-4, 9-12, 14-17
# Method: as §1
# The isoluminol reagent buffer was made of HBSS buffer (with Ca^2+), Isoluminol and HRP.
# as §2
# FIG. 1: Extracellular ROS analyzed by Isoluminol induced luminescence in human Neutrophils. ROS induced with PMA (30 ng/ml) with 200, 100 or 0 microM NAC. Concentrations of compounds 120, 60, 30 and 0 microM final concentrations.
# FIG. 9: Extracellular ROS analyzed by Isoluminol induced luminescence in rat Neutrophils. ROS induced with PMA (30 ng/ml) with 200, 100 or 0 microM NAC. Concentrations of compounds 120, 60, 30 and 0 microM final concentrations.
# FIG. 11: Extracellular ROS analyzed by Isoluminol induced luminescence in human PLB-985 cell line. ROS induced with PMA (30 ng/ml) with 200, 100 or 0 microM NAC. Concentrations of compounds 120, 60, 30 and 0 microM final concentrations.
# [3] = test system: PLB985 cells; experiment: Resazurin based in vitro toxicology assay (TOX8); assay type: cell-based, human; details: PLB985, 3 hours, 120 μM
# Method: The viability of cells treated with the compounds was also analyzed using a Resazurin based in vitro Toxicology Assay Kit (SigmaAldrich TOX8). Resazurin systems measure the metabolic activity of living cell. Resazurin in its oxidized form (blue) is reduced (red) by living cells and the amount of dye conversion is measured fluorometrically or spectrophotometrically indicating the degree of cytotoxicity.
# 1) 75 micro-l of PLB985 cells (1 million cells/ml) is mixed with 25 micro-l of Compounds 1, 2, 3 and D (480, 120, 15 and 0.48 micro-M) in a 96 well plate in duplicates. 2) 10 micro-L of Resazurin solution is added to each well and the plate is incubated at 37° C. for 3 hours. 3) Spectrophotometrical analysis is performed in plate reader at 600 and 690 nm.
# FIG. 18: Cell viability of compounds in human PLB-985 cell line. Concentrations of compounds 120; 60; 30; 3.75; 0.12 and […] final concentrations. Measurement that indicates cell cytotoxicity (In vitro toxicology assay, TOX-8). The bars show increased level of cytotoxicity (analysis of absorbance of 600 nm substracted with absorbance 690 nm).
# [4] = test system: human umbilical vein endothelial cells (HUVEC); experiment: XTT in vitro toxicology test in human umbilical vein endothelial cells; assay type: cell-based; details: for toxic concentration: HUVEC; for relative toxicity among the compounds: human endothelial cells, up to 72 hours
# Method: As a negative control, cells incubated with medium containing 0.5% DMSO (corresponding to the highest DMSO concentration above) was used. As a positive control, cells were incubated in the presence of 20% EtOH.
# After the incubation with the compounds, the wells were washed with PBS to remove substances which could interfere with the assay. 40 μl of fresh medium 200 without phenol red was added together with 10 μl XTT substance (according to the manufacturer's instructions). The plates were incubated for 8 hrs and the colour development was monitored by measuring the absorbance at 450 nm.
# After incubation, the number of viable cells was assessed by observing the amount of metabolized XTT (2,3-bis[2-methoxy-4-nitro-5-sulphophenyl]-2H-tetrazolium-5-carboxyanilide inner salt).
# [5] = test system: human umbilical vein endothelial cells (HUVEC); experiment: Visual evaluation of HUVECs under the microscope (dislodging from the surface); details: HUVEC
# Method: Cells were harvested and resuspended in supplemented medium 200 without phenol red. 50 000 cells were added in duplicates to 96-well plates. The compounds were tested on HUVECs according to the following concentrations.
# The compounds were diluted in Medium 200 from the 0.1M stock solution. The toxic effects of the compounds were tested after 24 hrs, 48 hrs and 72 hrs.
# By visually looking at the cells under the microscope and estimating the dislodging from the surface, the state of the cells was evaluated.
# [6] = cited from earlier work; for Inhibited Rate of Linoleic Acid Peroxidation (Rinh): two-phase model, N-acetylcysteine in the aqueous phase
# [7] = test system: kidney slice; experiment: Organ model TBARS experiment (TBA-MDA assay) in kidney slices
# [8] = ABTS radical cation assay (TEAC) in aqueous PBS buffer; details: 6.08 micro-M, PBS buffer pH 7.4, after 5 min
# Method: In order to investigate its aqueous phase performance, we thought that it would be interesting to determine its Trolox Equivalent Antioxidant Capacity (TEAC) (Free Rad. Biol. Med. 1999, 26, 1231-1237) which has been used to quantify the antioxidant activity of biological fluids, extracts and pure compounds. The TEAC value is defined as the concentration of Trolox which has an equivalent antioxidant potential as a 1 mM solution of the compound under investigation (Free Rad. Biol. Med. 1996, 20, 933-956).
# A 2,2′-azinobis(3-ethylbenzothiazoline-6 sulphonic acid radical cation (ABTS•+) assay was used to determine relative TEAC values. To a preformed solution of ABTS•+ in PBS buffer, pH 7.4, with an absorbance slightly above 0.7 were added various amounts (3-30 microM) of organoselenium compound 1, Trolox, sodium ascorbate and N-acetylcysteine. The absorbance at 734 inn was recorded immediately after mixing and then every minute for the next 8 minutes.
# Antioxidant activity as determined by the capacity of the antioxidant to decolorize the ABTS^+ radical cation was determined essentially as described in the literature (Acc. Chem. Res. 1986, 19, 194-201). […] In a typical experiment, the antioxidant (1.52 micro-L of a 3.00 mM solution in MeOH or water; final concentration=6.08 micro-M) was syringed into 0.750 mL of the ABTS^+ radical cation solution. After initial mixing, the absorbance was recorded every minute for the next eight minutes.
# [9] = test system: MG-63, HEK-293, SHSY-5y, MRC-5 and CaCo-2-cells; experiment: Alamar Blue cell viability/proliferation assay; assay type: cell-based, human; details: 60 micro-M, day 1 to day 7
# Description: Alamar Blue is a non-toxic metabolic indicator for viable cells. Following uptake, the dye becomes reduced and causes a change in the colour of the cell. The colour change correlates reasonably well with the number of living cells in the sample.
# Cells w/o antioxidant were used as controls.
# Alamar Blue is a non-toxic metabolic indicator for viable cells. Upon uptake into the cell the dye becomes reduced and changes colour. The colour change correlates approximately with the number of living cells in the sample.
# [10] = test system: liver microsomes; details: cited from earlier work
# [11] = coupled reductase method; cited from earlier work
structure (smiles),measurement,setting,value
CC[Te]c1nc(C)cc(C)c1O [Comparative Compound 2],antioxidative effect on intracellular ROS,[1],lesser effect
same,antioxidative effect on extracellular ROS,[2],less potent
same,cell viability at highest concentration,[3],decrease in cell viability
same,toxic concentration,[4]; 24 hrs incubation,500 µM
same,toxic concentration,[4]; 48 hrs incubation,200 µM
same,toxic concentration,[4]; 72 hrs incubation,200 µM
same,relative toxicity among the compounds,[4],slightly more toxic than Compounds 1
same,concentration at which cells were affected (visual),[5]; 24 hrs,500 µM
same,concentration at which cells were affected (visual),[5]; 48 hrs,200 µM
same,Inhibited Rate of Linoleic Acid Peroxidation (Rinh),[6],22 µM/h
CCCCCCCC[Te]c1nc(C)cc(C)c1O [Comparative Compound 3],antioxidative effect on intracellular ROS,[1],lesser effect
same,antioxidative effect on extracellular ROS,[2],less potent
same,cell viability at highest concentration,[3],decrease in cell viability
same,toxic concentration,[4]; 24 hrs incubation,100 µM
same,toxic concentration,[4]; 48 hrs incubation,100 µM
same,toxic concentration,[4]; 72 hrs incubation,100 µM
same,relative toxicity among the compounds,[4],most toxic compound
same,concentration at which cells were affected (visual),[5]; 24 hrs,100 µM
same,Inhibited Rate of Linoleic Acid Peroxidation (Rinh),[6],8 µM/h
Cc1cc2c(c(C)c1O)CC(C)[Se]2 (stereo not shown) [Compound 6],potency as inhibitor of TBARS production compared with references,[7],more potent inhibitors of TBARS production than Trolox and N-acetylcysteine
same,concentration able to inhibit 50% of the TBARS formation in the control incubation,[7]; re-oxygenation after Argon,sub-micromolar
CC(=O)N[C@@H](CS)C(=O)O [N-acetylcysteine],TEAC value,[8],2.4
Cc1c(C)c2c(c(C)c1O)CCC(C)(C(=O)O)O2 (stereo not shown) [Trolox],cell growth (Alamar Blue),[9],normal cell growth patterns
Oc1ccc2c(c1)CCO2 [X═O],inhibition of lipid peroxidation in liver microsomes,[10],not effective
Oc1ccc2c(c1)CCS2 [X═S],inhibition of lipid peroxidation in liver microsomes,[10],not effective
Oc1ccc2c(c1)CC[Se]2 [X═Se],inhibition of azo-initiated peroxidation of linoleic acid,"[6]; two-phase system, absence of thiol reducing agent",poor inhibitor
same,catalyst activity in the reaction between glutathione and hydroperoxide (thiol peroxidase activity),[11],insignificant
same,inhibition of lipid peroxidation in liver microsomes,[10],not effective
Oc1ccc2c(c1)CC[Te]2 [X═Te],antioxidant capacity,"[6]; two-phase system, presence of a reducing agent",best antioxidant capacity
same,catalyst activity in the reaction between glutathione and hydroperoxide (thiol peroxidase activity),[11],highly active catalyst
same,inhibition of lipid peroxidation in liver microsomes,[10],potent inhibitor
